The results in this text go back to PubChem BioAssay (NCI).

Each structure is given as a SMILES string.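 Step 1: Grow cells in 96-well plates. Step 2: Expose to compound for 48 hours at 5 concentrations. Step 3: Interpolate endpoints linearly; if unreached, use highest concentration. TGI marks complete inhibition of growth.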

Among the test systems are SF-539 CNS; SK-MEL-2 melanoma; HCC-2998 colon; U251 CNS; SK-OV-3 ovarian; OVCAR-8 ovarian; CAKI-1 renal; HCT-116 colon; MDA-MB-435; SN12C renal; SF-295 CNS; SK-MEL-5 melanoma; SF-268 CNS; MCF7 breast; HOP-92 NSCLC; LOX IMVI melanoma; RPMI-8226 leukemia.
Common to all, as to assay: NCI anticancer screen, dose series, 48 h

Turning to `COC(=O)c1cc(C)ccc1C1CN=NC12Cc1ccc(C)cc1C2=O` (centres undefined), the TGI in the experiment on SF-539 CNS, in the experiment on SK-MEL-2 melanoma, with HCC-2998 colon, in the experiment with U251 CNS, in the experiment with SK-OV-3 ovarian and with OVCAR-8 ovarian was > 100 µM throughout. Further, the TGI is > 100 µM in the experiment with CAKI-1 renal; > 100 µM in the experiment on HCT-116 colon; > 100 µM in the experiment with MDA-MB-435; > 100 µM in the experiment with SN12C renal; > 100 µM in the experiment with SF-295 CNS; 31.9 µM in the experiment with SK-MEL-5 melanoma. Besides, the TGI with SF-268 CNS was > 100 µM; in the experiment with MCF7 breast it was 85.8 µM; in the experiment on HOP-92 NSCLC, 66.5 µM; with LOX IMVI melanoma it was > 100 µM.

With `Cc1cc(C)c2c(O)c(S(=O)(=O)c3ccc(Cl)cc3)c(=O)oc2c1`, the TGI in the experiment on SF-539 CNS, in the experiment with SK-MEL-2 melanoma, in the experiment on U251 CNS, in the experiment with SK-OV-3 ovarian, in the experiment with RPMI-8226 leukemia and in the experiment with OVCAR-8 ovarian was > 100 µM in each case. The TGI in the experiment on CAKI-1 renal, with HCT-116 colon, in the experiment with MDA-MB-435, in the experiment with SN12C renal, in the experiment with SF-295 CNS and in the experiment with SK-MEL-5 melanoma was > 100 µM throughout. Further, the TGI in the experiment on SF-268 CNS, with MCF7 breast and with HOP-92 NSCLC was > 100 µM in each case.

For the compound `CC(=O)c1sc2c(c1OC(=O)c1ccco1)c(=O)n(-c1ccccc1)c(=S)n2-c1ccccc1`, the TGI in the experiment with SF-539 CNS is 20.6 µM; in the experiment on SK-MEL-2 melanoma it was 39.2 µM; with U251 CNS, 88.1 µM; in the experiment with SK-OV-3 ovarian it was 55.3 µM; in the experiment with RPMI-8226 leukemia it was 41.6 µM; in the experiment on OVCAR-8 ovarian, > 100 µM. Moreover, the TGI in the experiment with CAKI-1 renal is > 100 µM; with HCT-116 colon it was 41.1 µM; in the experiment on MDA-MB-435 it was 61.7 µM; in the experiment on SN12C renal, > 100 µM; with SF-295 CNS, 49.2 µM; in the experiment with SK-MEL-5 melanoma, 18.9 µM. Moreover, the TGI is 87.2 µM with SF-268 CNS, 55.4 µM in the experiment on MCF7 breast, 22 µM with HOP-92 NSCLC and 39.3 µM in the experiment on LOX IMVI melanoma.

Consider `COC(=O)/C=C(/C=C1/C(C#N)=C(N)N(c2ccc(Cl)cc2)C1(C)/C(=C/C(=O)OC)C(=O)OC)C(=O)OC` (centres undefined), for which the TGI in the experiment with SF-539 CNS, in the experiment on SK-MEL-2 melanoma, in the experiment with HCC-2998 colon, in the experiment with U251 CNS, in the experiment with SK-OV-3 ovarian and in the experiment on RPMI-8226 leukemia was > 100 µM each time. In addition, the TGI in the experiment with OVCAR-8 ovarian, with CAKI-1 renal, with HCT-116 colon, in the experiment with MDA-MB-435, in the experiment on SN12C renal and in the experiment on SF-295 CNS was > 100 µM throughout. Also, the TGI in the experiment on SF-268 CNS is > 100 µM; in the experiment on MCF7 breast it was > 100 µM; in the experiment on HOP-92 NSCLC, 88.6 µM; in the experiment with LOX IMVI melanoma, 84.6 µM.

With `OC1(c2ccc(Cl)cc2)C(N2CCCC2)c2ccccc2C2=NCCN21` (centres undefined), the TGI in the experiment on SF-539 CNS was 39.4 µM; in the experiment on SK-MEL-2 melanoma, 45 µM; with U251 CNS, > 100 µM; in the experiment with SK-OV-3 ovarian it was 57.6 µM; in the experiment on RPMI-8226 leukemia, 32.1 µM; with OVCAR-8 ovarian, 58.8 µM. For the same compound, the TGI with CAKI-1 renal is 94.6 µM; in the experiment on HCT-116 colon, 46.6 µM; in the experiment with MDA-MB-435, 86.7 µM; in the experiment on SN12C renal it was > 100 µM; in the experiment on SF-295 CNS, 30.9 µM; in the experiment on SK-MEL-5 melanoma, 28.4 µM. The TGI in the experiment on SF-268 CNS was > 100 µM; in the experiment with MCF7 breast it was 94.8 µM; with HOP-92 NSCLC, 62.9 µM; in the experiment on LOX IMVI melanoma, 36.7 µM.

`O=C1CCC2(c3ccccc3)Nc3ccncc3N12` (centres undefined): the TGI with SF-539 CNS, in the experiment on SK-MEL-2 melanoma, in the experiment on U251 CNS, in the experiment on SK-OV-3 ovarian, with OVCAR-8 ovarian and with HCT-116 colon was > 10 µM each time. The TGI with MDA-MB-435, in the experiment on SN12C renal, in the experiment on SF-295 CNS, with SF-268 CNS, with MCF7 breast and in the experiment with HOP-92 NSCLC was > 10 µM each time. Also, the TGI in the experiment with LOX IMVI melanoma was > 10 µM.

In the case of `COc1cc(/C=N\N(C)C)cc(/C=N/N(C)C)c1O`, the TGI turned out to be 37.1 µM in the experiment on SF-539 CNS; 28.1 µM in the experiment on SK-MEL-2 melanoma; 74.8 µM with U251 CNS; 55.4 µM in the experiment on SK-OV-3 ovarian; 50.2 µM in the experiment on RPMI-8226 leukemia; 52.1 µM in the experiment on CAKI-1 renal. Also, the TGI in the experiment on HCT-116 colon is > 100 µM; with MDA-MB-435 it was > 100 µM; in the experiment with SN12C renal, 52.7 µM; in the experiment with SF-295 CNS it was 8.9 µM; with SK-MEL-5 melanoma it was > 100 µM; in the experiment on SF-268 CNS, > 100 µM. Besides, the TGI in the experiment with MCF7 breast is > 100 µM; with HOP-92 NSCLC, 61.8 µM; in the experiment on LOX IMVI melanoma it was 58.7 µM.

For `OC1(c2ccccc2)C2CCN(CC2)C1CN1CCOCC1` (centres undefined), the TGI in the experiment with SF-539 CNS, in the experiment on SK-MEL-2 melanoma, in the experiment with HCC-2998 colon, with U251 CNS, with SK-OV-3 ovarian and in the experiment with RPMI-8226 leukemia was > 100 µM throughout. Besides, the TGI in the experiment with OVCAR-8 ovarian, with CAKI-1 renal, in the experiment with HCT-116 colon, in the experiment with MDA-MB-435, in the experiment on SN12C renal and with SF-295 CNS was > 100 µM in each case. Moreover, the TGI in the experiment with SK-MEL-5 melanoma, in the experiment with SF-268 CNS, in the experiment on MCF7 breast and in the experiment with LOX IMVI melanoma was > 100 µM in each case.

In the case of `Cc1ccc([N+](=O)[O-])cc1S(=O)(=O)Nc1ccc(C2=NN(c3ccc([N+](=O)[O-])cc3[N+](=O)[O-])C(c3cccs3)C2)cc1` (centres undefined), the TGI with SF-539 CNS worked out at 71.2 µM; in the experiment with SK-MEL-2 melanoma it was 32.7 µM; in the experiment with U251 CNS, 72.3 µM; in the experiment with SK-OV-3 ovarian, 77.9 µM; with RPMI-8226 leukemia, 60.5 µM; with OVCAR-8 ovarian, 92.1 µM. The TGI was > 100 µM with CAKI-1 renal; 29.3 µM in the experiment on HCT-116 colon; 51.4 µM in the experiment on MDA-MB-435; 34.1 µM in the experiment with SN12C renal; > 100 µM with SF-295 CNS; 26.1 µM in the experiment on SK-MEL-5 melanoma. Moreover, the TGI in the experiment on SF-268 CNS is 69.9 µM; in the experiment on MCF7 breast, 80.1 µM; in the experiment with HOP-92 NSCLC, 84.6 µM; in the experiment on LOX IMVI melanoma, 39.9 µM.
